Legend:
Amaranthus retroflexus = experiment: Pre-emergence herbicidal effect; type: in vivo; details: Dosage 320 g/ha, visual scoring after 3 weeks vs untreated controls, 100% = plants have died
Text: (§1) 1. Pre-Emergence Herbicidal Effect and Crop Plant Compatibility Seeds of monocotyledonous or dicotyledonous weed plants or crop plants are planted in wood-fiber pots in sandy loam and covered with earth. The compounds according to the invention, formulated in the form of wettable powders (WP) or as emulsion concentrates (EC), are then applied as aqueous suspension or emulsion at a water application rate of 600 to 800 l/ha (converted) with the addition of 0.2% of wetting agent to the surface of the covering earth. The dosage of the compounds according to the invention is given in grams per hectare. Following the treatment, the pots are placed in a greenhouse and kept under good growth conditions for the test plants. The visual scoring of the damage on the test plants is carried out after an experiment time of 3 weeks in comparison with untreated controls (herbicidal effect in percent (%): 100% effect=plants have died, 0% effect=as control plants). The following abbreviations are used in the tables below: [table]

Veronica persica = experiment: Pre-emergence herbicidal effect; type: in vivo; details: Dosage 320 g/ha, visual scoring after 3 weeks vs untreated controls, 100% = plants have died
Text: as §1

Stellaria media = experiment: Pre-emergence herbicidal effect; type: in vivo; details: Dosage 320 g/ha, visual scoring after 3 weeks vs untreated controls, 100% = plants have died
Text: as §1

Matricaria inodora = experiment: Pre-emergence herbicidal effect; type: in vivo; details: Dosage 320 g/ha, visual scoring after 3 weeks vs untreated controls, 100% = plants have died
Text: as §1

Viola tricolor = experiment: Pre-emergence herbicidal effect; type: in vivo; details: Dosage 320 g/ha, visual scoring after 3 weeks vs untreated controls, 100% = plants have died
Text: as §1

Echinochloa crus-galli = experiment: Pre-emergence herbicidal effect; type: in vivo; details: Dosage 320 g/ha, visual scoring after 3 weeks vs untreated controls, 100% = plants have died
Text: as §1

Setaria viridis = experiment: Pre-emergence herbicidal effect; type: in vivo; details: Dosage 320 g/ha, visual scoring after 3 weeks vs untreated controls, 100% = plants have died
Text: as §1

Polygonum convolvulus = experiment: Pre-emergence herbicidal effect; type: in vivo; details: Dosage 320 g/ha, visual scoring after 3 weeks vs untreated controls, 100% = plants have died
Text: as §1

[1] = logp (HCOOH), chemicophysical data; details: HCOOH
Lolium multiflorum = experiment: Pre-emergence herbicidal effect; type: in vivo; details: Dosage 320 g/ha, visual scoring after 3 weeks vs untreated controls, 100% = plants have died
Text: as §1

Alopecurus myosuroides = experiment: Pre-emergence herbicidal effect; type: in vivo; details: Dosage 320 g/ha, visual scoring after 3 weeks vs untreated controls, 100% = plants have died
Text: as §1

Avena fatua = experiment: Pre-emergence herbicidal effect; type: in vivo; details: Dosage 320 g/ha, visual scoring after 3 weeks vs untreated controls, 100% = plants have died
Text: as §1

SMILES: Cc1nc(N[C@@H]2CCc3ccccc32)nc(N)c1[N+](=O)[O-] [Example 1.123]
- Pre-emergence herbicidal effect AMARE (Amaranthus retroflexus): 100%
- Pre-emergence herbicidal effect VERPE (Veronica persica): 100%
- Pre-emergence herbicidal effect STEME (Stellaria media): 100%
- Pre-emergence herbicidal effect MATIN (Matricaria inodora): 100%
- Pre-emergence herbicidal effect VIOTR (Viola tricolor): 100%
- Pre-emergence herbicidal effect ECHCG (Echinochloa crus-galli): 80%

SMILES: Cc1nc(NC2CCCc3ccccc32)nc(N)c1[N+](=O)[O-] (racemic) [Example 1.124]
- Pre-emergence herbicidal effect SETVI (Setaria viridis): 80%
- Pre-emergence herbicidal effect AMARE (Amaranthus retroflexus): 100%
- Pre-emergence herbicidal effect VERPE (Veronica persica): 100%
- Pre-emergence herbicidal effect STEME (Stellaria media): 100%
- Pre-emergence herbicidal effect MATIN (Matricaria inodora): 90%
- Pre-emergence herbicidal effect VIOTR (Viola tricolor): 100%
- Pre-emergence herbicidal effect POLCO (Polygonum convolvulus): 90%

SMILES: Nc1cc(Cl)nc(N[C@@H]2CCCc3ccccc32)n1 [Example 1.76]
- Pre-emergence herbicidal effect AMARE (Amaranthus retroflexus): 90%
- Pre-emergence herbicidal effect VERPE (Veronica persica): 100%
- Pre-emergence herbicidal effect STEME (Stellaria media): 100%
- Pre-emergence herbicidal effect MATIN (Matricaria inodora): 100%

SMILES: Cc1ccc2c(c1)[C@H](Nc1nc(N)c(C#N)c(C3(C)CC3)n1)[C@@H](C)C2 [Example 1.93]
- logp (HCOOH) [1]: wax-like; logp (HCOOH): 3.31; 1H-NMR (CDCl3, 400 MHZ, δ in ppm): 0.75 (m, 2H, CH2);

SMILES: Cc1ccc2c(c1)[C@H](Nc1ncc(C#Cc3ccc(F)c(Cl)c3)c(N)n1)[C@@H](C)C2 [Example 1.248]
- logp (HCOOH) [1]: wax-like; logp (HCOOH): 2.71; 1H-NMR (CDCl3, 400 MHZ, δ in ppm): 1.25 (d, 3H, CH3);

SMILES: Cc1ccc2c(c1)[C@H](Nc1ncc(C(F)(F)F)c(N)n1)[C@@H](C)C2 [Example 1.107]
- logp (HCOOH) [1]: wax-like, logp (HCOOH): 2.11; 1H-NMR (CDCl3, 400 MHZ, δ in ppm): 1.25 (d, 3H, CH3);

SMILES: Cc1ccccc1-c1nc(N[C@@H]2CCCc3ccccc32)nc(N)c1C#N [Example 1.78]
- logp (HCOOH) [1]: solid; logp (HCOOH): 3.41; 1H-NMR (CDCl3, 400 MHZ, δ in ppm): 1.85-2.05 (br, 4H,

SMILES: Cc1ccc2c(c1)[C@H](Nc1nc(N)cc(N(C)C)n1)[C@@H](C)C2 [Example 1.91]
- logp (HCOOH) [1]: wax-like; logp (HCOOH): 1.66; 1H-NMR (CDCl3, 400 MHZ, δ in ppm): 1.25 (d, 3H, CH3);

SMILES: Cc1ccc2c(c1)[C@H](Nc1ncc(C)c(N)n1)[C@@H](C)C2 [Example 1.51]
- Pre-emergence herbicidal effect VERPE (Veronica persica): 100%
- Pre-emergence herbicidal effect STEME (Stellaria media): 100%
- Pre-emergence herbicidal effect LOLMU (Lolium multiflorum): 100%
- Pre-emergence herbicidal effect MATIN (Matricaria inodora): 100%

SMILES: Cc1nc(NC2c3ccccc3CC2C)nc(N)c1[N+](=O)[O-] (racemic) [Example 1.125]
- Pre-emergence herbicidal effect SETVI (Setaria viridis): 90%
- Pre-emergence herbicidal effect AMARE (Amaranthus retroflexus): 90%
- Pre-emergence herbicidal effect VERPE (Veronica persica): 100%
- Pre-emergence herbicidal effect STEME (Stellaria media): 100%
- Pre-emergence herbicidal effect MATIN (Matricaria inodora): 95%
- Pre-emergence herbicidal effect VIOTR (Viola tricolor): 100%
- Pre-emergence herbicidal effect ALOMY (Alopecurus myosuroides): 80%
- Pre-emergence herbicidal effect POLCO (Polygonum convolvulus): 90%
- Pre-emergence herbicidal effect ECHCG (Echinochloa crus-galli): 90%

SMILES: Cc1ccc(C2(c3nc(N[C@@H]4CCCc5ccccc54)nc(N)c3C#N)CC2)cc1 [Example 1.85]
- logp (HCOOH) [1]: wax-like; logp (HCOOH): 4.02; 1H-NMR (CDCl3, 400 MHZ, δ in ppm): 1.70-2.10 (br,

SMILES: Cc1ccc2c(c1)[C@H](Nc1ncc(C#CCO)c(N)n1)[C@@H](C)C2 [Example 1.222]
- logp (HCOOH) [1]: wax-like; logp (HCOOH): 1.04; 1H-NMR (CDCl3, 400 MHZ, δ in ppm): 1.25 (d, 3H, CH3);

SMILES: Cc1ccc2c(c1)[C@H](Nc1nc(N)c(C#N)c(-c3ccccc3C)n1)[C@@H](C)C2 [Example 1.77]
- logp (HCOOH) [1]: solid; logp (HCOOH): 3.83; 1H-NMR (CDCl3, 400 MHZ, δ in ppm): 1.25 (m, 3H, CH3);

SMILES: COC(=O)c1cc(N)nc(N[C@H]2c3cc(C)ccc3C[C@@H]2C)n1 [Example 1.118]
- logp (HCOOH) [1]: wax-like; logp (HCOOH): 2.96; 1H-NMR (CDCl3, 400 MHZ, δ in ppm): 1.30 (d, 3H, CH3);

SMILES: COc1cccc(C#Cc2cnc(N[C@H]3c4cc(C)ccc4C[C@@H]3C)nc2N)c1 [Example 1.221]
- logp (HCOOH) [1]: wax-like; logp (HCOOH): 1.98; 1H-NMR (CDCl3, 400 MHZ, δ in ppm): 1.25 (d, 3H, CH3);

SMILES: CC(=O)c1cnc(N[C@H]2c3cc(C)ccc3C[C@@H]2C)nc1N [Example 1.184]
- logp (HCOOH) [1]: wax-like; logp (HCOOH): 1.58; 1H-NMR (CDCl3, 400 MHZ, δ in ppm): 1.30 (d, 3H, CH3);

SMILES: Cc1nc(NC2CCOc3ccccc32)nc(N)c1[N+](=O)[O-] (racemic) [Example 1.121]
- Pre-emergence herbicidal effect SETVI (Setaria viridis): 100%
- Pre-emergence herbicidal effect AMARE (Amaranthus retroflexus): 100%
- Pre-emergence herbicidal effect VERPE (Veronica persica): 100%
- Pre-emergence herbicidal effect STEME (Stellaria media): 100%
- Pre-emergence herbicidal effect LOLMU (Lolium multiflorum): 90%
- Pre-emergence herbicidal effect MATIN (Matricaria inodora): 100%
- Pre-emergence herbicidal effect VIOTR (Viola tricolor): 100%
- Pre-emergence herbicidal effect ALOMY (Alopecurus myosuroides): 80%
- Pre-emergence herbicidal effect POLCO (Polygonum convolvulus): 100%
- Pre-emergence herbicidal effect ECHCG (Echinochloa crus-galli): 100%

SMILES: COc1ccc2c(c1)C(Nc1ncc(C(F)(F)F)c(N)n1)CCO2 (racemic) [Example 1.239]
- logp (HCOOH) [1]: wax-like; logp (HCOOH): 1.46

SMILES: Cc1ccc2c(c1)[C@H](Nc1nc(N)c(C#N)c(C3(c4ccc(Cl)cc4Cl)CC3)n1)[C@@H](C)C2 [Example 1.94]
- logp (HCOOH) [1]: wax-like; logp (HCOOH): 5.55; 1H-NMR (CDCl3, 400 MHZ, δ in ppm): 1.25 (d, 3H, CH3);
- Pre-emergence herbicidal effect SETVI (Setaria viridis): 90%
- Pre-emergence herbicidal effect AMARE (Amaranthus retroflexus): 90%
- Pre-emergence herbicidal effect VERPE (Veronica persica): 100%
- Pre-emergence herbicidal effect AVEFA (Avena fatua): 80%
- Pre-emergence herbicidal effect STEME (Stellaria media): 100%
- Pre-emergence herbicidal effect LOLMU (Lolium multiflorum): 80%
- Pre-emergence herbicidal effect MATIN (Matricaria inodora): 85%
- Pre-emergence herbicidal effect VIOTR (Viola tricolor): 100%
- Pre-emergence herbicidal effect ALOMY (Alopecurus myosuroides): 80%
- Pre-emergence herbicidal effect POLCO (Polygonum convolvulus): 80%
- Pre-emergence herbicidal effect ECHCG (Echinochloa crus-galli): 90%

SMILES: CC1Cc2ccc(F)cc2C1Nc1ncc(C(F)(F)F)c(N)n1 (racemic) [Example 1.243]
- logp (HCOOH) [1]: wax-like; logp (HCOOH): 1.93; 1H-NMR (CDCl3, 400 MHZ, δ in ppm): 0.95 (d, 3H, CH3);

SMILES: C[Si](C)(C)C#Cc1cnc(N[C@@H]2CCCc3ccccc32)nc1N [Example 1.39]
- logp (HCOOH) [1]: wax-like; logp (HCOOH): 1.86; 1H-NMR (CDCl3, 400 MHZ, δ in ppm): 0.25 (s, 9H, CH3);

SMILES: C#Cc1cnc(N[C@@H]2CCCc3ccccc32)nc1N [Example 1.116]
- logp (HCOOH) [1]: wax-like; logp (HCOOH): 1.09; 1H-NMR (CDCl3, 400 MHZ, δ in ppm): 1.80 (m, 3H, 3H

SMILES: Cc1ccc2c(c1)[C@H](Nc1nc(N)c(C#N)c(C(C)C)n1)[C@@H](C)C2 [Example 1.64]
- logp (HCOOH) [1]: wax-like; logp (HCOOH): 3.90; 1H-NMR (CDCl3, 400 MHZ, δ in ppm): 1.25 (m, 9H,

SMILES: Cc1nc(NC2(C)CCCc3ccccc32)nc(N)c1C#N (racemic) [Example 1.224]
- logp (HCOOH) [1]: wax-like; logp (HCOOH): 3.37; 1H-NMR (CDCl3, 400 MHZ, δ in ppm): 1.80 (m, 1H, 1H

SMILES: Cc1ccc2c(c1)C(Nc1ncc(I)c(N)n1)C(C)C2 (mixture of isomers) [Example 1.87]
- logp (HCOOH) [1]: wax-like; logp (HCOOH): 1.37; 1H-NMR (CDCl3, 400 MHZ, δ in ppm): 1.25 (d, 3H, CH3);

SMILES: Cc1ccc2c(c1)[C@H](Nc1ncc(C#CCC(C)C)c(N)n1)[C@@H](C)C2 [Example 1.249]
- logp (HCOOH) [1]: wax-like; logp (HCOOH): 1.73; 1H-NMR (CDCl3, 400 MHZ, δ in ppm): 1.00 (d, 6H,

SMILES: Cc1nc(NC2CCOc3ccc(C(C)C)cc32)nc(N)c1C#N (racemic) [Example 1.27]
- logp (HCOOH) [1]: solid, m.p.: 158.8° C.; logp (HCOOH): 2.51; 1H-NMR (CDCl3, 400 MHZ, δ in ppm): 1.15
